Experimental data: patent US20240148673A1 (priority 2016, published 2024)
Like-named read-outs stand apart in the source and are kept apart here. Each block holds one molecule with its values, some of them ahead of it.

Key:
[1] = PBS (pH 7.4), n=6; cited from earlier work
[2] = in vivo, po, 6 mg
Experimental: The study compared various dose routes: sublingual (SL), per oral tablet (PO), subcutaneous (SC) and intravenous (IV). […] An Oral Irritation assessment was performed (SL film group): Predose (0) and 24 hr postdose by Draize scoring.

average flux (30 min, 16 mg/mL): 0 μg/cm2*min
average flux (45 min, 16 mg/mL): 0.2604 μg/cm2*min
average flux (60 min, 16 mg/mL): 0.3125 μg/cm2*min
average flux (120 min, 16 mg/mL): 0.6727 μg/cm2*min
average flux (180 min, 16 mg/mL): 1.076 μg/cm2*min
average flux (240 min, 16 mg/mL): 1.029 μg/cm2*min
average flux (300 min, 16 mg/mL): 1.25 μg/cm2*min
Average Steady State flux (360 min, 4 mg/mL): 0.167 ug/cm2*min
Average Steady State flux (360 min, 8 mg/mL): 0.466 ug/cm2*min
Average Steady State flux (360 min, 16 mg/mL): 1.317 ug/cm2*min
average flux (360 min, 16 mg/mL): 1.385 μg/cm2*min
Average Steady State flux (360 min, 100 mg/mL): 2.942 ug/cm2*min
Compound: CNC[C@H](O)c1ccc(O)c(O)c1 [Epinephrine Bitartrate]

Compound: CC(C)NCC(O)COc1cccc2ccccc12 (centres unmarked) [PP]
C0 of saturated solution [1]: 588005 ± 5852 µg/mL

DIPI Tmax [2]: 0 h
Compound: CNC[C@H](O)c1ccc(OC(=O)C(C)(C)C)c(OC(=O)C(C)(C)C)c1 (racemic) [dipivefrin]
